# In ChEMBL document CHEMBL3882241, “Compounds inhibiting the binding of sap for treating osteoarthritis” (2006):
# Biological target: Serum amyloid P-component (Homo sapiens) (UniProt P02743)
# Assay: Inhibition of calcium dependent [125I]serum amyloid P-component (unknown origin) binding to immobilized Neisseria meningitidis at 2 mM incubated for 2 hrs by fluorescence/electron microscopy relative to control
# Details: not given
# Chain of Serum amyloid P-component (Homo sapiens) (P02743 whole entry): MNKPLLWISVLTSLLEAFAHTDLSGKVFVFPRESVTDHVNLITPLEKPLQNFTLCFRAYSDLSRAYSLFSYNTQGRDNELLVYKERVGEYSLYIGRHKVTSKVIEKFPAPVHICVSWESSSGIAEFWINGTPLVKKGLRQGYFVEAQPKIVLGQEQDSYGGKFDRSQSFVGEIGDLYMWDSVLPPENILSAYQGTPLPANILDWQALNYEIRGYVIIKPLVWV
row,SMILES,inhibition
1,O=C(O)[C@H]1CCCN1C(=O)Cc1cc(O)c(CC(=O)N2CCC[C@@H]2C(=O)O)cc1O,100%
2,O=C(O)[C@H]1CCCN1C(=O)[C@H]1CC[C@@H](C(=O)N2CCC[C@@H]2C(=O)O)CC1,100%
3,O=C(O)[C@H]1CCCN1C(=O)Cc1ccc(CC(=O)N2CCC[C@@H]2C(=O)O)cc1,100%

# Biological target: Serum amyloid P-component (Homo sapiens) (UniProt P02743)
# Assay: Inhibition of calcium dependent [125I]serum amyloid P-component (unknown origin) binding to immobilized Neisseria meningitidis at 200 uM incubated for 2 hrs by fluorescence/electron microscopy relative to control
# Details: not given
row,SMILES,inhibition
1,O=C(O)[C@H]1CCCN1C(=O)Cc1cc(O)c(CC(=O)N2CCC[C@@H]2C(=O)O)cc1O,100%
2,O=C(O)[C@H]1CCCN1C(=O)[C@H]1CC[C@@H](C(=O)N2CCC[C@@H]2C(=O)O)CC1,100%
3,O=C(O)[C@H]1CCCN1C(=O)Cc1ccc(CC(=O)N2CCC[C@@H]2C(=O)O)cc1,100%

# Biological target: Serum amyloid P-component (Homo sapiens) (UniProt P02743)
# Assay: Inhibition of calcium dependent [125I]serum amyloid P-component (unknown origin) binding to immobilized Neisseria meningitidis at 20 uM incubated for 2 hrs by fluorescence/electron microscopy relative to control
# Details: not given
row,SMILES,inhibition
1,O=C(O)[C@H]1CCCN1C(=O)Cc1cc(O)c(CC(=O)N2CCC[C@@H]2C(=O)O)cc1O,95%
2,O=C(O)[C@H]1CCCN1C(=O)[C@H]1CC[C@@H](C(=O)N2CCC[C@@H]2C(=O)O)CC1,93%
3,O=C(O)[C@H]1CCCN1C(=O)Cc1ccc(CC(=O)N2CCC[C@@H]2C(=O)O)cc1,73%

# Biological target: Serum amyloid P-component (Homo sapiens) (UniProt P02743)
# Assay: Inhibition of calcium dependent [125I]serum amyloid P-component (unknown origin) binding to immobilized Neisseria meningitidis at 2 uM incubated for 2 hrs by fluorescence/electron microscopy relative to control
# Details: not given
row,SMILES,inhibition
1,O=C(O)[C@H]1CCCN1C(=O)Cc1cc(O)c(CC(=O)N2CCC[C@@H]2C(=O)O)cc1O,76%
2,O=C(O)[C@H]1CCCN1C(=O)[C@H]1CC[C@@H](C(=O)N2CCC[C@@H]2C(=O)O)CC1,73%
3,O=C(O)[C@H]1CCCN1C(=O)Cc1ccc(CC(=O)N2CCC[C@@H]2C(=O)O)cc1,64%

# Biological target: Serum amyloid P-component (Homo sapiens) (UniProt P02743)
# Assay: Inhibition of calcium dependent [125I]serum amyloid P-component (unknown origin) binding to immobilized Neisseria meningitidis at 200 nM incubated for 2 hrs by fluorescence/electron microscopy relative to control
# Details: not given
row,SMILES,inhibition
1,O=C(O)[C@H]1CCCN1C(=O)Cc1cc(O)c(CC(=O)N2CCC[C@@H]2C(=O)O)cc1O,1%
2,O=C(O)[C@H]1CCCN1C(=O)[C@H]1CC[C@@H](C(=O)N2CCC[C@@H]2C(=O)O)CC1,31%
3,O=C(O)[C@H]1CCCN1C(=O)Cc1ccc(CC(=O)N2CCC[C@@H]2C(=O)O)cc1,7%

# Biological target: Serum amyloid P-component (Homo sapiens) (UniProt P02743)
# Assay: Inhibition of calcium dependent [125I]serum amyloid P-component (unknown origin) binding to immobilized chicken erythrocyte native long chromatin at 2 mM incubated for 2 hrs by gamma counting relative to control
# Details: not given
row,SMILES,inhibition
1,O=C(O)[C@H]1CCCN1C(=O)Cc1cc(O)c(CC(=O)N2CCC[C@@H]2C(=O)O)cc1O,97%
2,O=C(O)[C@H]1CCCN1C(=O)[C@H]1CC[C@@H](C(=O)N2CCC[C@@H]2C(=O)O)CC1,100%
3,O=C(O)[C@H]1CCCN1C(=O)Cc1ccc(CC(=O)N2CCC[C@@H]2C(=O)O)cc1,92%

# Biological target: Serum amyloid P-component (Homo sapiens) (UniProt P02743)
# Assay: Inhibition of calcium dependent [125I]serum amyloid P-component (unknown origin) binding to immobilized chicken erythrocyte native long chromatin at 200 uM incubated for 2 hrs by gamma counting relative to control
# Details: not given
row,SMILES,inhibition
1,O=C(O)[C@H]1CCCN1C(=O)Cc1cc(O)c(CC(=O)N2CCC[C@@H]2C(=O)O)cc1O,88%
2,O=C(O)[C@H]1CCCN1C(=O)[C@H]1CC[C@@H](C(=O)N2CCC[C@@H]2C(=O)O)CC1,94%
3,O=C(O)[C@H]1CCCN1C(=O)Cc1ccc(CC(=O)N2CCC[C@@H]2C(=O)O)cc1,66%

# Biological target: Serum amyloid P-component (Homo sapiens) (UniProt P02743)
# Assay: Inhibition of calcium dependent [125I]serum amyloid P-component (unknown origin) binding to immobilized chicken erythrocyte native long chromatin at 20 uM incubated for 2 hrs by gamma counting relative to control
# Details: not given
row,SMILES,inhibition
1,O=C(O)[C@H]1CCCN1C(=O)Cc1cc(O)c(CC(=O)N2CCC[C@@H]2C(=O)O)cc1O,78%
2,O=C(O)[C@H]1CCCN1C(=O)[C@H]1CC[C@@H](C(=O)N2CCC[C@@H]2C(=O)O)CC1,67%
3,O=C(O)[C@H]1CCCN1C(=O)Cc1ccc(CC(=O)N2CCC[C@@H]2C(=O)O)cc1,39%

# Biological target: Serum amyloid P-component (Homo sapiens) (UniProt P02743)
# Assay: Inhibition of calcium dependent [125I]serum amyloid P-component (unknown origin) binding to immobilized chicken erythrocyte native long chromatin at 2 uM incubated for 2 hrs by gamma counting relative to control
# Details: not given
row,SMILES,inhibition
1,O=C(O)[C@H]1CCCN1C(=O)Cc1cc(O)c(CC(=O)N2CCC[C@@H]2C(=O)O)cc1O,45%
2,O=C(O)[C@H]1CCCN1C(=O)[C@H]1CC[C@@H](C(=O)N2CCC[C@@H]2C(=O)O)CC1,35%
3,O=C(O)[C@H]1CCCN1C(=O)Cc1ccc(CC(=O)N2CCC[C@@H]2C(=O)O)cc1,19%

# Biological target: Serum amyloid P-component (Homo sapiens) (UniProt P02743)
# Assay: Inhibition of calcium dependent [125I]serum amyloid P-component (unknown origin) binding to immobilized chicken erythrocyte native long chromatin at 200 nM incubated for 2 hrs by gamma counting relative to control
# Details: not given
row,SMILES,inhibition
1,O=C(O)[C@H]1CCCN1C(=O)Cc1cc(O)c(CC(=O)N2CCC[C@@H]2C(=O)O)cc1O,0%
2,O=C(O)[C@H]1CCCN1C(=O)[C@H]1CC[C@@H](C(=O)N2CCC[C@@H]2C(=O)O)CC1,1%
3,O=C(O)[C@H]1CCCN1C(=O)Cc1ccc(CC(=O)N2CCC[C@@H]2C(=O)O)cc1,4%

# Biological target: Serum amyloid P-component (Homo sapiens) (UniProt P02743)
# Assay: Inhibition of calcium dependent [125I]serum amyloid P-component (unknown origin) binding to immobilized influenza virus A/Shanghai/24/90 at 2 mM incubated for 2 hrs by fluorescence/electron microscopy relative to control
# Details: not given
row,SMILES,inhibition
1,O=C(O)[C@H]1CCCN1C(=O)Cc1cc(O)c(CC(=O)N2CCC[C@@H]2C(=O)O)cc1O,89%
2,O=C(O)[C@H]1CCCN1C(=O)[C@H]1CC[C@@H](C(=O)N2CCC[C@@H]2C(=O)O)CC1,92%
3,O=C(O)[C@H]1CCCN1C(=O)Cc1ccc(CC(=O)N2CCC[C@@H]2C(=O)O)cc1,89%

# Biological target: Serum amyloid P-component (Homo sapiens) (UniProt P02743)
# Assay: Inhibition of calcium dependent [125I]serum amyloid P-component (unknown origin) binding to immobilized influenza virus A/Shanghai/24/90 at 200 uM incubated for 2 hrs by fluorescence/electron microscopy relative to control
# Details: not given
row,SMILES,inhibition
1,O=C(O)[C@H]1CCCN1C(=O)Cc1cc(O)c(CC(=O)N2CCC[C@@H]2C(=O)O)cc1O,89%
2,O=C(O)[C@H]1CCCN1C(=O)[C@H]1CC[C@@H](C(=O)N2CCC[C@@H]2C(=O)O)CC1,89%
3,O=C(O)[C@H]1CCCN1C(=O)Cc1ccc(CC(=O)N2CCC[C@@H]2C(=O)O)cc1,89%

# Biological target: Serum amyloid P-component (Homo sapiens) (UniProt P02743)
# Assay: Inhibition of calcium dependent [125I]serum amyloid P-component (unknown origin) binding to immobilized influenza virus A/Shanghai/24/90 at 20 uM incubated for 2 hrs by fluorescence/electron microscopy relative to control
# Details: not given
row,SMILES,inhibition
1,O=C(O)[C@H]1CCCN1C(=O)Cc1cc(O)c(CC(=O)N2CCC[C@@H]2C(=O)O)cc1O,80%
2,O=C(O)[C@H]1CCCN1C(=O)[C@H]1CC[C@@H](C(=O)N2CCC[C@@H]2C(=O)O)CC1,83%
3,O=C(O)[C@H]1CCCN1C(=O)Cc1ccc(CC(=O)N2CCC[C@@H]2C(=O)O)cc1,85%

# Biological target: Serum amyloid P-component (Homo sapiens) (UniProt P02743)
# Assay: Inhibition of calcium dependent [125I]serum amyloid P-component (unknown origin) binding to immobilized influenza virus A/Shanghai/24/90 at 2 uM incubated for 2 hrs by fluorescence/electron microscopy relative to control
# Details: not given
row,SMILES,inhibition
1,O=C(O)[C@H]1CCCN1C(=O)Cc1cc(O)c(CC(=O)N2CCC[C@@H]2C(=O)O)cc1O,57%
2,O=C(O)[C@H]1CCCN1C(=O)[C@H]1CC[C@@H](C(=O)N2CCC[C@@H]2C(=O)O)CC1,76%
3,O=C(O)[C@H]1CCCN1C(=O)Cc1ccc(CC(=O)N2CCC[C@@H]2C(=O)O)cc1,65%

# Biological target: Serum amyloid P-component (Homo sapiens) (UniProt P02743)
# Assay: Inhibition of calcium dependent [125I]serum amyloid P-component (unknown origin) binding to immobilized influenza virus A/Shanghai/24/90 at 200 nM incubated for 2 hrs by fluorescence/electron microscopy relative to control
# Details: not given
row,SMILES,inhibition
1,O=C(O)[C@H]1CCCN1C(=O)Cc1cc(O)c(CC(=O)N2CCC[C@@H]2C(=O)O)cc1O,24%
2,O=C(O)[C@H]1CCCN1C(=O)[C@H]1CC[C@@H](C(=O)N2CCC[C@@H]2C(=O)O)CC1,0%
3,O=C(O)[C@H]1CCCN1C(=O)Cc1ccc(CC(=O)N2CCC[C@@H]2C(=O)O)cc1,37%

# Biological target: Serum amyloid P-component (Homo sapiens) (UniProt P02743)
# Details: 10 mM
# Description: Inhibition of calcium dependent [125I]serum amyloid P-component (unknown origin) binding to immobilized Neisseria meningitidis at 10 mM incubated for 2 hrs by fluorescence/electron microscopy relative to control
row,SMILES,inhibition
1,O=C(O)CN(CCN(CC(=O)O)CC(=O)O)CC(=O)O,100%
